pEC50: −log10 of the molar value.

In the experiment the target is T1, S1P5 (Homo sapiens, UniProt Q9H228).
T1 construct: expressed in transfected cells; host or cells: CHO cells (membranes)
T1 sequence (Q9H228 whole entry, species assumed): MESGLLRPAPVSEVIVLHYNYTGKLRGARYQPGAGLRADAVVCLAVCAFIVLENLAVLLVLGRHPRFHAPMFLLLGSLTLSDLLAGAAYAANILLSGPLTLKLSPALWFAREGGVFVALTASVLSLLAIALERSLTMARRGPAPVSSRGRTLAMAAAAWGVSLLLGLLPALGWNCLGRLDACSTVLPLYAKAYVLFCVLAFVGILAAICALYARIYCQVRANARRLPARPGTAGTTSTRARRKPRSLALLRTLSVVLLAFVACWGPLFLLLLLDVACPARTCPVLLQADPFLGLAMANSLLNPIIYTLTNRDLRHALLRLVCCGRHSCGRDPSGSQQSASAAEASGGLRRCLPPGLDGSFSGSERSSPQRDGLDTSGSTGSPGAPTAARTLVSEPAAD
Nature of the experiment: [35S]-GTPγS functional binding assay on CHO-S1P5 membranes. The experiment is classed as biochemical. Conditions: membranes of CHO cells expressing recombinant S1P5 receptors; measure of S1P5 agonism. The protocol:
CHO cells expressing recombinant S1P5 receptors were cultured in 500 cm^2 culture trays and, once confluent, rinsed and detached with cell-lifting buffer (10 mM HEPES, 154 mM NaCl, 6.85 mM EDTA, pH 7.4). Cells were then pelleted by centrifugation, resuspended, and homogenized in membrane preparation buffer (10 mM HEPES and 10 mM EDTA, pH 7.4) using a Polytron PT 1200E homogenizer (Kinematica, Luzern, Switzerland). Cellular proteins were pelleted by centrifugation at 48,000×g at 4° C. for 30 minutes. The resulting supernatant was discarded, and the pellet was re-suspended again in membrane preparation buffer, homogenized for a second time, and then centrifuged again as described above. The final cellular protein pellet was suspended in ice cold resuspension buffer (10 mM HEPES and 0.1 mM EDTA, pH 7.4), divided into aliquots, and stored at −80° C. until use.
Functional binding assays for [^35S]-GTPγS were performed in 96-well non-binding surface plates with a final volume of 200 μL. The test compounds were serially diluted in DMSO and added to assay plates using a Tecan D300E digital printer with a total volume of 0.4 μL. The control sphingosine-1-phosphate (S1P) was prepared separately by preparing a 400 μM stock solution from a 100 nmol pellet of SIP in 10 mM Na2CO3 with 2% s-cyclodextrin. The serial dilution of S1P was done using complete assay buffer (20 mM HEPES, 10 mM MgCl2, 100 mM NaCl, 1 mM EDTA, 0.1% fatty acid free bovine serum albumin (BSA), and 30 μg/mL saponin, pH 7.4) and transferred to wells already containing 0.4 μL DMSO. All the wells were then loaded to a total volume of 40 μL of complete assay buffer, except the non-specific binding (NSB) wells. For NSB wells, 40 μL/well of 50 μM GTPγS (Sigma Aldrich, cat #G8634, St. Louis, MO) was added to wells containing 0.4 μL of DMSO. The assay was started by the addition of 120 μL/well of CHO-S1P receptor membrane solution containing 40 μg/mL of membrane protein, 16.67 μM guanosine diphosphate (GDP; Sigma Aldrich, cat #G7127, St. Louis, MO), and 2.5 mg/mL of WGA PVT SPA beads in complete buffer. Assay plates were then sealed and incubated at room temperature with gentle agitation for 30 minutes. Next, 40 μL/well of 1 nM of [^35S]-GTPγS (PerkinElmer, cat #NEG030X250UC, Waltham, MA) in basic assay buffer (20 mM HEPES, 10 mM MgCl2, 100 mM NaCl, and 1 mM EDTA, pH 7.4) was added to the assay plates to yield a final concentration of […] and the plates were further incubated for 40 minutes at room temperature with gentle agitation. The assay was terminated by centrifugation of the plates at 1000 rpm for 3 minutes using an Eppendorf 5810R centrifuge (Eppendorf, Hamburg, Germany) and G protein bound radioactivity was quantitated using a MicroBeta2 microplate scintillation counter (PerkinElmer, Waltham, MA). As G protein bound radioactivity directly correlates to receptor activation and coupling to the G protein, this assay is a measure of S1P5 agonism.
Turning to `O=C(O)[C@@H]1CCN(C2CCc3cc(-c4ccc(C5CC5)c(F)c4)ccc32)C1` (single isomer, unassigned) [Compound 36a], the pEC50 was at least 8.00. On to `O=C(O)C1CCN(C2CCc3cc(CCc4c(Cl)cccc4Cl)ccc32)CC1` (single isomer, unassigned) [Compound 22b, 1-(5-(2,6-dichlorophenethyl)-2,3-dihydro-1H-inden-1-yl)piperidine-4-carboxylic acid], for which the pEC50 is at least 8.00. For `O=C(O)C1C2CCC1CN(C1CCc3cc(C#Cc4cccc(F)c4)ccc31)C2` [Compound 10, (1R,5S,8s)-3-(5-((3-fluorophenyl)ethynyl)-2,3-dihydro-1H-inden-1-yl)-3-azabicyclo[3.2.1]-octane-8-carboxylic acid] the value was 6.00 to 7.00; for `O=C(O)[C@@H]1CCN(C2CCc3cc(C#Cc4cccc(F)c4)ccc32)C1` (single isomer, unassigned) [Compound 14b], at least 8.00; for `O=C(O)[C@H]1CCN(C2CCc3cc(C#Cc4cccc(F)c4)ccc32)C1` (single isomer, unassigned) [Compound 13b], 7.00 to 8.00.

With `CC(C)c1ccc(-c2ccc3c(c2)CCC3N2CCC(C(=O)O)CC2)cc1Cl` (centres unmarked) [Compound 33, 1-(5-(3-chloro-4-isopropylphenyl)-2,3-dihydro-1H-inden-1-yl)piperidine-4-carboxylic acid], the pEC50 was at least 8.00. For `O=C(O)C1CCN(C2CCc3cc(CCc4c(F)cccc4F)ccc32)CC1` (single isomer, unassigned) [Compound 28b, 1-(5-(2,6-difluorophenethyl)-2,3-dihydro-1H-inden-1-yl)piperidine-4-carboxylic acid], the pEC50 is 7.00 to 8.00. As for `O=C(O)[C@@H]1CCN(C2CCc3cc(C#Cc4cccc(F)c4)ccc32)C1` (single isomer, unassigned) [Compound 14a], the pEC50 is at least 8.00. For `O=C(O)C1CCN(C2CCc3cc(CCc4c(F)cccc4F)ccc32)CC1` (single isomer, unassigned) [Compound 28a, 1-(5-(2,6-difluorophenethyl)-2,3-dihydro-1H-inden-1-yl)piperidine-4-carboxylic acid] the value was 6.00 to 7.00; for `O=C(O)C1CCN(C2CCc3cc(CCc4cccc(Cl)c4)ccc32)CC1` (single isomer, unassigned) [Compound 27b, 1-(5-(3-chlorophenethyl)-2,3-dihydro-1H-inden-1-yl)piperidine-4-carboxylic acid], 6.00 to 7.00.

As for `O=C(O)C1=CCN(C2CCc3cc(C#Cc4c(Cl)cccc4Cl)ccc32)CC1` (centres unmarked) [Compound 2, 1-(5-((2,6-dichlorophenyl)ethynyl)-2,3-dihydro-1H-inden-1-yl)-1,2,3,6-tetrahydropyridine-4-carboxylic acid], the negative-log EC50 (pEC50) was at least 8.00. Regarding `O=C(O)[C@]12C[C@H]1CN(C1CCc3cc(C#Cc4c(Cl)cccc4Cl)ccc31)C2` (stereo partly drawn) [Compound 15, (1R,5R)-3-(5-((2,6-dichlorophenyl)ethynyl)-2,3-dihydro-1H-inden-1-yl)-3-azabicyclo[3.1.0]-hexane-1-carboxylic acid], the pEC50 is at least 8.00. In the case of `O=C(O)C1CCN(C2CCc3cc(C#Cc4ccccc4F)ccc32)CC1` (single isomer, unassigned) [Compound 6b, 1-(5-((2-fluorophenyl)ethynyl)-2,3-dihydro-1H-inden-1-yl)piperidine-4-carboxylic acid], the pEC50 is at least 8.00. The figure for `O=C(O)[C@H]1CCN(C2CCc3cc(C#Cc4cccc(F)c4)ccc32)C1` (single isomer, unassigned) [Compound 13a] is 7.00 to 8.00; for `O=C(O)C1CCN(C2CCc3cc(CCc4cccc(Cl)c4)ccc32)CC1` (single isomer, unassigned) [Compound 27a, 1-(5-(3-chlorophenethyl)-2,3-dihydro-1H-inden-1-yl)piperidine-4-carboxylic acid] it is at least 8.00; for `O=C(Cc1ccc2c(c1)CCC2N1CCC(C(=O)O)CC1)c1c(Cl)cccc1Cl` (single isomer, unassigned) [Compound 24, 1-(5-(2-(2,6-dichlorophenyl)-2-oxoethyl)-2,3-dihydro-1H-inden-1-yl)piperidine-4-carboxylic acid] it is 7.00 to 8.00.

Take `O=C(O)[C@H]1CCN(C2CCc3cc(-c4ccc(C5CC5)c(Cl)c4)ccc32)C1` (single isomer, unassigned) [Compound 35b]: the pEC50 is 7.00 to 8.00. As for `O=C(O)[C@@H]1CCCCN1C1CCc2cc(C#Cc3cccc(F)c3)ccc21` (single isomer, unassigned) [Compound 8a], the pEC50 is 6.00 to 7.00. For the compound `O=C(O)C1CCCN(C2CCc3cc(-c4ccc(C5CC5)c(Cl)c4)ccc32)C1` (centres unmarked) [Compound 38, 1-(5-(3-chloro-4-cyclopropylphenyl)-2,3-dihydro-1H-inden-1-yl)piperidine-3-carboxylic acid], the pEC50 is 7.00 to 8.00. For `O=C(O)[C@H]1CCCCN1C1CCc2cc(C#Cc3cccc(F)c3)ccc21` (single isomer, unassigned) [Compound 9b], the pEC50 was 5.00 to 6.00. As to `O=C(O)C1CCN(C2CCc3cc(C#Cc4ccccc4F)ccc32)CC12CC2` (centres unmarked) [Compound 11, 5-(5-((2-fluorophenyl)ethynyl)-2,3-dihydro-1H-inden-1-yl)-5-azaspiro[2.5]octane-8-carboxylic acid], the pEC50 is 7.00 to 8.00. `O=C(O)C1CCN(C2CCc3cc(CCc4c(Cl)cccc4Cl)ccc32)CC1` (single isomer, unassigned) [Compound 22a, 1-(5-(2,6-dichlorophenethyl)-2,3-dihydro-1H-inden-1-yl)piperidine-4-carboxylic acid]: the pEC50 is at least 8.00.

With `O=C(O)[C@@H]1CCCN(C2CCc3cc(C#Cc4cccc(F)c4)ccc32)C1` (single isomer, unassigned) [Compound 7b], the pEC50 was 6.00 to 7.00.

Regarding `O=C(O)C1CN(C2CCc3cc(-c4ccc(C5CC5)c(Cl)c4)ccc32)C1` (single isomer, unassigned) [Compound 30b, 1-(5-(3-chloro-4-cyclopropylphenyl)-2,3-dihydro-1H-inden-1-yl)azetidine-3-carboxylic acid], the pEC50 was at least 8.00. For the compound `O=C(O)C1CN(C2CCc3cc(C#Cc4cccc(F)c4)ccc32)C1` (single isomer, unassigned) [Compound 19, 1-(5-((3-fluorophenyl)ethynyl)-2,3-dihydro-1H-inden-1-yl)azetidine-3-carboxylic acid], the pEC50 was at least 8.00.

In the case of `O=C(O)[C@H]1CCN(C2CCc3cc(-c4ccc(C5CC5)c(F)c4)ccc32)C1` (single isomer, unassigned) [Compound 37b], the pEC50 was 7.00 to 8.00.

With `O=C(O)C1CC2(C1)CN(C1CCc3cc(CCc4c(Cl)cccc4Cl)ccc31)C2` (centres unmarked) [Compound 29, 2-(5-(2,6-dichlorophenethyl)-2,3-dihydro-1H-inden-1-yl)-2-azaspiro[3.3]heptane-6-carboxylic acid], the pEC50 is 7.00 to 8.00. The figure for `O=C(O)[C@@H]1CCCN(C2CCc3cc(C#Cc4cccc(F)c4)ccc32)C1` (single isomer, unassigned) [Compound 7a] is 7.00 to 8.00. For `O=C(O)C1CCN(C2CCc3cc(C#Cc4c(Cl)cccc4Cl)ccc32)CC1` (centres unmarked) [Compound 1, 1-(5-((2,6-dichlorophenyl)ethynyl)-2,3-dihydro-1H-inden-1-yl)piperidine-4-carboxylic acid] the value was at least 8.00; for `O=C(O)C1CCN(C2CCc3cc(CCc4cccc(F)c4)ccc32)CC1` (single isomer, unassigned) [Compound 26b, 1-(5-(3-fluorophenethyl)-2,3-dihydro-1H-inden-1-yl)piperidine-4-carboxylic acid], 7.00 to 8.00. For `O=C(O)C1CCN(C2CCc3cc(-c4ccc5c(c4)CCC5)ccc32)CC1` (single isomer, unassigned) [Compound 44, 1-(2,2′,3,3′-tetrahydro-1H,1′H-[5,5′-biinden]-1-yl)piperidine-4-carboxylic acid], the pEC50 was 7.00 to 8.00.

`O=C(O)[C@@H]1CCN(C2CCc3cc(-c4ccc(C5CC5)c(Cl)c4)ccc32)C1` (single isomer, unassigned) [Compound 34a]: the pEC50 is at least 8.00.
